From EPA's ToxValDB 9.5

Test system: Rattus norvegicus
Conditions: short-term, duration: 28 days, oral, gavage, Sprague-Dawley

## O=C(O)C(F)(F)C(F)(F)C(F)(F)C(F)(F)C(F)(F)C(F)(F)C(F)(F)C(F)(F)C(F)(F)F [Perfluorodecanoic acid]
F, Survival rates
  NOEL: 2.5 mg/kg-day
F, body weight
  LOEL: 1.25 mg/kg-day
M, Clinical chemistry_Alanine aminotransferase
  LOEL: 0.312 mg/kg-day
M, Clinical chemistry_Albumin
  LOEL: 1.25 mg/kg-day
M, Clinical chemistry_Albumin/globulin ratio
  LOEL: 0.156 mg/kg-day
M, Clinical chemistry_Alkaline phosphatase
  LOEL: 0.312 mg/kg-day
M, Clinical chemistry_Aspartate aminotransferase
  LOEL: 0.156 mg/kg-day
M, Clinical chemistry_Cholesterol
  LOEL: 0.156 mg/kg-day
M, Clinical chemistry_Creatinine kinase
  NOEL: 2.5 mg/kg-day
M, Clinical chemistry_Direct bilirubin
  LOEL: 1.25 mg/kg-day
M, Clinical chemistry_Free thyroxine
  LOEL: 0.312 mg/kg-day
M, Clinical chemistry_Globulin
  LOEL: 0.156 mg/kg-day
M, Clinical chemistry_Indirect bilirubin
  LOEL: 1.25 mg/kg-day
M, Clinical chemistry_Sorbitol dehydrogenase
  NOEL: 2.5 mg/kg-day
M, Clinical chemistry_Testosterone
  LOEL: 1.25 mg/kg-day
M, Clinical chemistry_Thyroid stimulating hormone
  NOEL: 2.5 mg/kg-day
M, Clinical chemistry_Total bile acids
  LOEL: 1.25 mg/kg-day
M, Clinical chemistry_Total bilirubin
  LOEL: 1.25 mg/kg-day
M, Clinical chemistry_Total protein
  LOEL: 0.156 mg/kg-day
M, Clinical chemistry_Total thyroxine
  NOEL: 2.5 mg/kg-day
M, Clinical chemistry_Total triiodothyronine
  NOEL: 2.5 mg/kg-day
M, Clinical chemistry_Triglycerides
  LOEL: 1.25 mg/kg-day
M, Gene expression_Acox1
  LOEL: 0.156 mg/kg-day
M, Gene expression_Acyl-CoA oxidase
  LOEL: 0.156 mg/kg-day
M, Gene expression_Cyp2b1
  LOEL: 0.156 mg/kg-day
M, Gene expression_Cyp2b2
  LOEL: 0.156 mg/kg-day
M, Gene expression_Cyp4a1
  LOEL: 0.156 mg/kg-day
M, Hematology_Erythrocytes
  LOEL: 2.5 mg/kg-day
M, Hematology_Hematocrit
  NOEL: 2.5 mg/kg-day
M, Hematology_Hemoglobin
  NOEL: 2.5 mg/kg-day
M, Hematology_Mean corpuscular hemoglobin concentration
  LOEL: 0.625 mg/kg-day
M, Hematology_Mean corpuscular volume
  LOEL: 1.25 mg/kg-day
M, Hematology_Platelets
  NOEL: 2.5 mg/kg-day
M, Hematology_Reticulocytes
  LOEL: 1.25 mg/kg-day
M, Nonneoplastic effects_Bone marrow - Hypocellularity
  LOEL: 2.5 mg/kg-day
M, Nonneoplastic effects_Epididymis - Duct, exfoliated germ cell
  LOEL: 2.5 mg/kg-day
M, Nonneoplastic effects_Epididymis - Epithelium, apoptosis
  NOEL: 2.5 mg/kg-day
M, Nonneoplastic effects_Epididymis - Hypospermia
  NOEL: 2.5 mg/kg-day
M, Nonneoplastic effects_Forestomach - Epithelium, hyperplasia
  NOEL: 2.5 mg/kg-day
M, Nonneoplastic effects_Forestomach - Inflammation, chronic active
  NOEL: 2.5 mg/kg-day
M, Nonneoplastic effects_Kidney - Nephropathy, chronic progressive
  NOEL: 2.5 mg/kg-day
M, Nonneoplastic effects_Liver - Hepatocyte, Necrosis
  NOEL: 2.5 mg/kg-day
M, Nonneoplastic effects_Liver - Hepatocyte, cytoplasmic alteration
  LOEL: 0.625 mg/kg-day
M, Nonneoplastic effects_Liver - Hepatocyte, hypertrophy
  LOEL: 1.25 mg/kg-day
M, Nonneoplastic effects_Liver - Hepatocyte, vacuolization cytoplasmic
  LOEL: 1.25 mg/kg-day
M, Nonneoplastic effects_Lymph nodes - Mandibular, atrophy
  NOEL: 2.5 mg/kg-day
M, Nonneoplastic effects_Lymph nodes - Mesenteric, atrophy
  NOEL: 2.5 mg/kg-day
M, Nonneoplastic effects_Nose - Olfactory epithelium, degeneration
  NOEL: 2.5 mg/kg-day
M, Nonneoplastic effects_Nose - Olfactory epithelium, hyperplasia
  NOEL: 2.5 mg/kg-day
M, Nonneoplastic effects_Nose - Olfactory epithelium, inflammation, suppurative
  NOEL: 2.5 mg/kg-day
M, Nonneoplastic effects_Nose - Respiratory epithelium, hyperplasia
  NOEL: 2.5 mg/kg-day
M, Nonneoplastic effects_Nose - Respiratory epithelium, inflammation, chronic active
  NOEL: 2.5 mg/kg-day
M, Nonneoplastic effects_Spleen - Atrophy
  NOEL: 2.5 mg/kg-day
M, Nonneoplastic effects_Spleen - Extramedullary hematopoiesis, increased
  NOEL: 2.5 mg/kg-day
M, Nonneoplastic effects_Testes - Germinal epithelium, degeneration
  LOEL: 2.5 mg/kg-day
M, Nonneoplastic effects_Testes - Interstitial cell, atrophy
  LOEL: 1.25 mg/kg-day
M, Nonneoplastic effects_Testes - Seminiferous tubule, spermatid retention
  LOEL: 2.5 mg/kg-day
M, Nonneoplastic effects_Thymus - Atrophy
  LOEL: 2.5 mg/kg-day
M, Nonneoplastic effects_Thymus - Lymphocyte, apoptosis
  LOEL: 1.25 mg/kg-day
M, Nonneoplastic effects_Thyroid gland - Follicular cell hypertrophy
  NOEL: 2.5 mg/kg-day
M, Organ weights_Liver - Absolute
  LOEL: 0.156 mg/kg-day
M, Organ weights_Liver - Relative
  LOEL: 0.156 mg/kg-day
M, Organ weights_R. adrenal gland - Absolute
  LOEL: 0.156 mg/kg-day
M, Organ weights_R. adrenal gland - Relative
  LOEL: 2.5 mg/kg-day
M, Organ weights_R. kidney - Absolute
  LOEL: 2.5 mg/kg-day
M, Organ weights_R. kidney - Relative
  LOEL: 0.625 mg/kg-day
M, Organ weights_R. testis - Absolute
  LOEL: 2.5 mg/kg-day
M, Organ weights_Spleen - Absolute
  LOEL: 1.25 mg/kg-day
M, Organ weights_Spleen - Relative
  LOEL: 2.5 mg/kg-day
M, Organ weights_Thymus - Absolute
  LOEL: 1.25 mg/kg-day
M, Organ weights_Thymus - Relative
  LOEL: 1.25 mg/kg-day
M, Organ weights_Thyroid gland - Absolute
  NOEL: 2.5 mg/kg-day
M, Organ weights_Thyroid gland - Relative
  LOEL: 1.25 mg/kg-day
M, Reproductive toxicity_Altered sperm parameters
  LOEL: 2.5 mg/kg-day
M, Survival rates
  NOEL: 2.5 mg/kg-day
M, body weight
  LOEL: 1.25 mg/kg-day
